7 compounds from patent US9617262B2, “Antibacterial cyclopental[C]pyrrole substituted 3,4-dihydro-1H-[1,8]naphthyridinones” (Janssen Sciences Ireland UC, priority 2011, dated 2017) can be followed below.

The test system of one data set is Human HelaM cells. Description: Cytotoxicity MTT assay (TOX HELAM). The data set is classed as cell-based. The note with it: 72 hours. How it is done:
Cytotoxicity of the compounds was evaluated using the MTT assay. Human HelaM cells grown in 96-well plates were exposed to serial dilutions of the tested compounds (final volume of 0.2 ml) and incubated for 72 hours at 37° C. and 5% CO2. Inhibitors are typically varied over the range of 25 to 0.8 μM. The final DMSO concentration in the assay is 0.5%. MTT (3-(4,5-Dimethylthiazol-2-yl)-2,5-diphenyltetrazolium bromide, a tetrazole) was added and reduced to purple formazan only in living cells. Solubilization of the formazan crystals was achieved by adding 100 μl 2-propanol. Cell viability was determined by measuring the absorbance of the reduced formazan, giving a purple color, at 540 nm and 690 nm. The absorbance measured at 690 nm was automatically subtracted from the absorbance at 540 nm, to eliminate the effects of non-specific absorption. The percent cytotoxicity achieved by the compounds was calculated according to standard methods. Cytotoxicity is reported as CC50, the concentration that causes a 50% reduction in cell viability.
The results are depicted in the table D2 below (TOX HELAM).

In another data set the test system is S. aureus. Description: Antibacterial susceptibility testing: IC90 determination with 10% human serum (STA + 10% HS). The format is cell-based, Staphylococcus aureus. Particulars: human serum at a final concentration of 10%. How it is done:
(§1) The following bacteria were used: Staphylococcus aureus ATCC 29213, methicillin-resistant Staphylococcus aureus (MRSA) ATCC 700788 and Escherichia coli ATCC 35218. The bacteria used in this study were grown overnight in flasks containing 100 ml Mueller-Hinton broth (Difco cat. nr. 0757-17) in sterile de-ionized water, with shaking, at 37° C. Stocks were store at −70° C. until use.
(§2) Bacteria were incubated on a tryptic soy agar plate containing 5% sheep blood (Becton Dickinson cat. nr. 254053) for 18-24 hours at 35° C. in aerobic conditions (first passage). For the second passage, fresh Mueller-Hinton broth is inoculated with 5-10 colonies and grown overnight at 35° C. until turbidity (reaching log-phase) in aerobic conditions is reached. The bacterial suspension is then adjusted to 0.5 McFarland density and further diluted 1:100 in Mueller Hinton broth medium. This is used as inoculum.
(§3) MIC assays were performed by the broth microdilution method in a 96-well format (flat-bottom microtitre plates) with a final volume of 0.1 ml Mueller Hinton broth containing two-fold serial dilutions of compounds and inoculated with 5×10^5 CFU/ml of bacteria (standard inoculum size according to CLSI guidelines). Inhibitors are typically varied over the range of 63 to 0.49 μM. The final DMSO concentration in the assay was 1.25% (maximum tolerable DMSO concentration=6%). In the assays where the effect of human serum on the activity of the compounds against S. aureus was tested, human serum was added at a final concentration of 10%. The plates were incubated at 35° C. for 16-20 hours. At the end of incubation the bacterial growth was quantified fluorometrically. For this, resazurin was added to all wells and the plates were re-incubated. The incubation time is dependent on the type of bacteria. A change in color from blue to pink indicated the growth of bacteria. The fluorescence was read in computer-controlled fluorometer (Fluoroskan Ascent FL, Labsystems) at an excitation wavelength 540 nm and an emission wavelength of 590 nm. The % growth inhibition achieved by the compounds was calculated according to standard methods. The IC90 (expressed in μg/ml) was defined as the 90% inhibitory concentration for bacterial growth. A panel of reference compounds were simultaneously tested for QC approval.
The results are depicted in the table D2 below (STA+10% HS).

Data set [1] relates to Escherichia coli Tol C mutant. Description: Antimicrobial spectrum, broth microdilution MIC. The format is cell-based. The note with it: E. coli tolC mutant. Here is the method: (§4) Minimum Inhibitory Concentrations (MICs) were determined in accordance with the Clinical and Laboratory Standards Institute (CLSI) methodology against aerobic bacteria (CLSI M07-A8) (see Clinical and Laboratory Standards Institute. 2009. Methods for dilution antimicrobial susceptibility tests for bacteria that grow aerobically. CLSI document M07-A8, Vol. 29, No. 2.) by the broth microdilution method with cation-adjusted Mueller-Hinton broth (CA-MHB) medium for the majority of organisms, except for Haemophilus influenza, where Haemophilis test medium (HTM) broth was used. Descriptions of the individual organisms can be found in the table. Where possible, ATCC standard strains were tested.
(§5) The inoculum density for the susceptibility testing was standardized to give a final inoculum of approximately 5×10^5 CFU/mL.
(§6) Stock solutions of the compounds were prepared in DMSO at concentrations of 1 mg/mL. Linezolid was prepared in DMSO at a concentration of 2 mg/mL. Stock solutions of all compounds were diluted into CA-MHB to give a range of two-fold dilutions, depending upon the sensitivity of the organism being tested.

For data set [2], the system named is Escherichia coli ATCC 25922; reference strain. Description: Antimicrobial spectrum, broth microdilution MIC. The data set is classed as cell-based. The note with it: E. coli ATCC 25922. How it is done:
as §4, §5, §6

The subject of data set [3] is Staphylococcus aureus ATCC 43300; reference strain MRSA. Description: Antimicrobial spectrum, broth microdilution MIC. The format is cell-based. The note with it: S. aureus ATCC 43300. Here is the method: as §4, §5, §6
The test system of data set [4] is Haemophilus influenzae ATCC 49247; reference strain. Description: Antimicrobial spectrum, broth microdilution MIC. The data set is classed as cell-based. Particulars: H. influenza ATCC 49247. Here is the method:
as §4, §5, §6

Data set [5] deals with Staphylococcus aureus ATCC 29213; reference strain MSSA. In words: Antimicrobial spectrum, broth microdilution MIC. The format is cell-based. Particulars: S. aureus ATCC 29213. Here is the method: as §4, §5, §6
For data set [6], the target named is S. aureus ATCC 29213 FabI (Staphylococcus aureus (strain MRSA252), UniProt Q6GI75). Description: Staphylococcus aureus FabI enzyme inhibition assay. The format is biochemical. The note with it: pH 6.5, 30 minutes at room temperature. Here is the method: FabI enzyme inhibition assays were carried out in half-area, 384-well microtitre plates. Compounds were evaluated in 40-μl assay mixtures containing 100 mM NaADA, pH 6.5 (ADA=N-[2-acetamido]-2iminodiacetic acid), 250 μM crotonoyl-CoA, 625 μM NADH and 50 μg/ml S. aureus ATCC 29213 FabI. Inhibitors were typically varied over the range of 50 to 0.39 μM. The reaction mixtures were incubated for 30 minutes at room temperature and the reaction was stopped by adding 200 mM Tris buffer (pH 9.0) to create a pH-shift. The consumption of NADH was monitored by measuring the change in absorbance at […]. By comparing sample readings to those of negative (absence of compound) and positive (absence of enzyme) controls, the percent inhibition of enzymatic activity of the compounds was determined. A best-fit curve is fitted by a minimum of squares method. From this an IC50-value (expressed in μg/ml), resulting in 50% inhibition of enzymatic activity, was obtained.

Data set [7] has as its system Staphylococcus aureus ATCC 29213. Description: Antibacterial susceptibility testing: IC90 determination (STA). Particulars: STA ATCC 29213, 90% inhibitory concentration for bacterial growth. The data set is classed as cell-based. Here is the method: as §1, §2, §3
Data set [8] can be described thus: In vivo pharmacokinetic and oral bioavailability. Particulars: male Swiss mice; for C0: 20% HP-β-CD solution; for Oral bioavailability: p.o. 10 mg/kg vs i.v. 2.5 mg/kg. How it is done: The in vivo pharmacokinetics and oral bioavailability of the compound of the examples was/is investigated in male Swiss mice (fed) following single intravenous (i.v.) bolus and oral (p.o.) administration. For the i.v. and p.o. solution formulations, the compound was/is dissolved in a 20% HP-β-CD solution. The pH of the formulations was/is around pH 4. All i.v. formulations were isotonic.

SMILES strings stand for the structures. ≈ marks a conversion by molar mass, not a printed value.

As for `O=C1CCc2cc(/C=C/C(=O)N3C[C@@H]4CN(c5ccccc5)C[C@@H]4C3)cnc2N1` [compound 2], in the data set with Human HelaM cells, the “TOX HELAM (222.125) CC50” value was above 19.4696 mg/L. Moreover, the “STA + 10% HS (361.169) IC90” value in the data set on S. aureus amounted to 1.09 mg/L. Further, the MIC90 in data set [1] was 0.25 mg/L (≈ 0.644 µM); in [2] it was above 8 mg/L; in [3] it was 0.5 mg/L (≈ 1.29 µM); in data set [4] it was above 8 mg/L; in [5], 0.25 mg/L (≈ 0.644 µM). The “FabI IC50” value in data set [6] was 0.78 mg/L. The “STA (361.159) IC90” value in data set [7] was 1.02 mg/L.

As to `O=C1CCc2cc(/C=C/C(=O)N3CC4C=C(c5ccsc5)CC4C3)cnc2N1` (stereo not shown) [compound 10], in the data set with Human HelaM cells, the “TOX HELAM (222.125) CC50” value is above 3.915 mg/L. Further, the “STA + 10% HS (361.169) IC90” value in the data set with S. aureus was found to be 0.13 mg/L. In [8] (i.v. 2.5 mg/kg), the AUC0-inf is 3.992 µg·h/mL, the “Half life (t1/2)” value is recorded as 1.3 h, the “Plasma clearance Cl” value is recorded as 0.64 L/h/kg and the Vdz came out at 1.2 L/kg. The same compound displayed a C0 in [8] (i.v. 2.5 mg/kg) of 4.154 µg/mL. The compound also gave an Oral bioavailability in data set [8] of 81%. Further, in data set [8] (p.o. 10 mg/kg), the AUC0-inf came out at 12.376 µg·h/mL, the Cmax worked out at 3.537 µg/mL, the “Half life (t1/2)” value is given as 2.2 h and the Tmax amounted to 1.0 h. The compound also showed an MIC90 in data set [1] of 0.125 mg/L (≈ 0.319 µM). In [2], this compound had an MIC90 above 8 mg/L. Further, the MIC90 in data set [3] was found to be 0.03 mg/L (≈ 0.0766 µM). Besides, the MIC90 in [4] is above 8 mg/L. The MIC90 in [5] stood at 0.015 mg/L (≈ 0.0383 µM). In [6], the “FabI IC50” value is 0.53 mg/L. Besides, the “STA (361.159) IC90” value in data set [7] stood at 0.08 mg/L.

Consider `O=C1CCc2cc(/C=C/C(=O)N3CC4C=C(c5ccncc5)CC4C3)cnc2N1` (stereo not shown) [compound 12], for which the “TOX HELAM (222.125) CC50” value in the data set with Human HelaM cells is above 9.707 mg/L. Also, the “STA + 10% HS (361.169) IC90” value in the data set on S. aureus was found to be 0.53 mg/L. For the same compound, in data set [8] (i.v. 2.5 mg/kg), the AUC0-inf amounted to 1.124 µg·h/mL, the “Half life (t1/2)” value is recorded as 1.1 h, the “Plasma clearance Cl” value amounted to 2.2 L/h/kg and the Vdz was 3.7 L/kg. The compound further registered a C0 in data set [8] (i.v. 2.5 mg/kg) of 2.333 µg/mL. The same compound registered an Oral bioavailability in data set [8] of 21%. In data set [8] (p.o. 10 mg/kg), the AUC0-last was determined as 0.914 µg·h/mL, the Cmax worked out at 0.275 µg/mL and the Tmax is on record as 1.0 h. In [1], this compound gave an MIC90 of 0.25 mg/L (≈ 0.647 µM). The compound also registered an MIC90 in [2] above 8 mg/L. Besides, the MIC90 in [3] is 0.125 mg/L (≈ 0.323 µM). Besides, the MIC90 in data set [4] is 1 mg/L (≈ 2.59 µM). This compound registered an MIC90 in [5] of 0.125 mg/L (≈ 0.323 µM). In addition, in data set [6], the “FabI IC50” value turned out to be 0.44 mg/L. Also, the “STA (361.159) IC90” value in data set [7] was 0.33 mg/L.

With `O=C1CCc2cc(/C=C/C(=O)N3CC4C=C(c5ccccc5F)CC4C3)cnc2N1` (stereo not shown) [compound 21], the “TOX HELAM (222.125) CC50” value in the data set with Human HelaM cells is above 4.0346 mg/L. Besides, the “STA + 10% HS (361.169) IC90” value with S. aureus turned out to be 0.29 mg/L. The “FabI IC50” value in data set [6] was 0.65 mg/L. Further, the “STA (361.159) IC90” value in data set [7] came to 0.13 mg/L.

On to `O=C1CCc2cc(/C=C/C(=O)N3CC4C=C(c5ccoc5)CC4C3)cnc2N1` (stereo not shown) [compound 22], for which, in the data set on Human HelaM cells, the “TOX HELAM (222.125) CC50” value was above 9.43 mg/L. Besides, the “STA + 10% HS (361.169) IC90” value in the data set on S. aureus was determined as 0.25 mg/L. In addition, the MIC90 is 1 mg/L (≈ 2.66 µM) in [1]; above 8 mg/L in data set [2]; 0.125 mg/L (≈ 0.333 µM) in data set [3]; 4 mg/L (≈ 10.7 µM) in [4]; 0.06 mg/L (≈ 0.16 µM) in data set [5]. Moreover, the “FabI IC50” value in data set [6] was determined as 0.58 mg/L. In addition, the “STA (361.159) IC90” value in [7] turned out to be 0.23 mg/L.

For `N#Cc1ccccc1C1=CC2CN(C(=O)/C=C/c3cnc4c(c3)CCC(=O)N4)CC2C1` (stereo not shown) [compound 23], in the data set on Human HelaM cells, the “TOX HELAM (222.125) CC50” value was above 10.3108 mg/L. Further, the “STA + 10% HS (361.169) IC90” value in the data set on S. aureus was 0.79 mg/L. In addition, in data set [6], the “FabI IC50” value stood at 0.41 mg/L. The “STA (361.159) IC90” value in [7] came out at 0.67 mg/L.

In the case of `O=C1CCc2cc(/C=C/C(=O)N3C[C@@H]4CN(c5nccs5)C[C@@H]4C3)cnc2N1` [compound 24], the “TOX HELAM (222.125) CC50” value with Human HelaM cells was above 3.9549 mg/L. For the same compound, the “STA + 10% HS (361.169) IC90” value in the data set on S. aureus stood at 2.44 mg/L. For the same compound, the “FabI IC50” value in [6] amounted to 0.58 mg/L. For the same compound, the “STA (361.159) IC90” value in data set [7] amounted to 4.05 mg/L.
